The source of these data is US12187773B2, “Modified GIP peptide analogues” (Antag Therapeutics ApS, priority 2018, dated 2025).

The IC50 is the concentration at which inhibition is half-maximal. A high value points to weaker potency in that assay.

Read-outs that look alike come from different tables or passages of the source. Where a SMILES comes first, the peptide text is derived from it. The star is where a group is joined. C18 diacid = O=C(O)CCCCCCCCCCCCCCCCC(=O)*

The target of one data set is T1, glucagon receptor (GcgR) (Homo sapiens, UniProt P47871).
T1 construct: expressed in transfected cells; host or cells: COS-7 (transient)
Description: cAMP assay - selectivity, antagonism at glucagon receptor. Particulars: Table 3A; COS-7 cells; agonist glucagon at 50-80% of maximal cAMP. The class given is cell-based. On the procedure:
(§1) Transient transfected COS-7 cells expressing the either of the GLP1 receptor (GLP1R), GLP2 receptor (GLP2R), glucagon receptor (GcgR) or secretin receptor (SCTR) were seeded in white 96-well plates with a density of 3.5*10^4/well. The day after, the cells were washed twice with Hepes buffered saline (HBS) buffer and incubated with HBS and 1 mM 3-isobutyl-1-methylxanthine (IBMX) for 30 min at 37° C. To test for agonistic properties, ligands were added and incubated for 30 min at 37° C. In order to test for antagonistic properties, the cells were preincubated with the antagonists for 10 min prior to the addition the natural agonist for the expressed receptor (GLP1 for GLP1R expressing cells, GLP2 for GLP2R expressing cells, glucagon for the GcgR and secretin for the SCTR) and subsequent incubated for 20 additional min. […] The HitHunter™ cAMP XS assay (DiscoveRx) was carried out according to the manufacturer's instructions.
(Cyclic AMP is a second messenger, typically raised through Gs and lowered through Gi signalling.)

The target of the next data set is T2, GLP2 receptor (GLP2R) (Homo sapiens, UniProt O95838).
T2 construct: expressed in transfected cells; host or cells: COS-7 (transient)
T2 sequence (O95838 1-553): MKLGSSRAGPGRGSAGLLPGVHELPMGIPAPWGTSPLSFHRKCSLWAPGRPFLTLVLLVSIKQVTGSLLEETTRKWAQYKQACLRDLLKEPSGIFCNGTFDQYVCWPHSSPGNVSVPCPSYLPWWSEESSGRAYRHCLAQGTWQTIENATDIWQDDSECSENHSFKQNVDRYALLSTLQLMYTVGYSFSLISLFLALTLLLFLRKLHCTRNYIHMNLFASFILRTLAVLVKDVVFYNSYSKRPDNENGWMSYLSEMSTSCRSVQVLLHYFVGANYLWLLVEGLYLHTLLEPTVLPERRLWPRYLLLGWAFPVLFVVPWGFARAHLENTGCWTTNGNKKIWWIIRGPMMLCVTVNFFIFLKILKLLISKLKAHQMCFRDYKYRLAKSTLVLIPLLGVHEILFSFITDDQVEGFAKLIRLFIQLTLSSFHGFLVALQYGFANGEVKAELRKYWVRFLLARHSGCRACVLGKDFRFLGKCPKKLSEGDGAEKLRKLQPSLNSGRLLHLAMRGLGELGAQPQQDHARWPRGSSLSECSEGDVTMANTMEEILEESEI
Description: cAMP assay - selectivity, antagonism at GLP2 receptor. The class given is cell-based. Particulars: Table 3B; COS-7 cells; agonist GLP2. On the procedure:
as §1

Data set [1] in a line: Elimination half-life (T1/2) estimated in Göttingen minipigs. The class given is in vivo. The protocol:
2-3 Göttingen minipigs were subcutaneously administered one of the GIP analogues of the present invention (1-10 nmol/kg, total volume 2-6 mL) and blood samples were collected before and up to 432 hours post subcutaneous administration.) from a central venous catheter. The catheter was flushed with saline and heparin between samples. Blood was collected into cold EDTA tubes, centrifuged and plasma was kept at −20° C. pending analyses.
Concentrations of the acylated GIP(3-30)NH2 or GIP(5-30)NH2 analogues in blood samples from Göttingen minipigs were analyzed by RIA. Analogues' immunoreactivity was determined using antiserum Ab95234, Ab95235, Ab95236, a polyclonal in-house antibody raised in rabbits specific for either the mid region of GIP(1-30)NH2 or amidated C-terminus of GIP(3-30)NH2.
In addition to the hormone analysis, blood concentrations of AT374, 380, 382-385, 392-393 were determined by LC/MS performed by Red Glead Discovery AB, Lund, Sweden. The plasma samples were precipitated by addition of 3 parts ethanol followed by thorough mixing. After centrifugation and dilution of the supernatant, the samples were analyzed by LC-MS/MS and compared with a 9-point calibration curve. The calibration curves were prepared in naïve plasma matrix from Göttingen minipigs.

The target of a further data set is T3, human GIP receptor (Homo sapiens, UniProt P48546).
T3 sequence (P48546 22-466): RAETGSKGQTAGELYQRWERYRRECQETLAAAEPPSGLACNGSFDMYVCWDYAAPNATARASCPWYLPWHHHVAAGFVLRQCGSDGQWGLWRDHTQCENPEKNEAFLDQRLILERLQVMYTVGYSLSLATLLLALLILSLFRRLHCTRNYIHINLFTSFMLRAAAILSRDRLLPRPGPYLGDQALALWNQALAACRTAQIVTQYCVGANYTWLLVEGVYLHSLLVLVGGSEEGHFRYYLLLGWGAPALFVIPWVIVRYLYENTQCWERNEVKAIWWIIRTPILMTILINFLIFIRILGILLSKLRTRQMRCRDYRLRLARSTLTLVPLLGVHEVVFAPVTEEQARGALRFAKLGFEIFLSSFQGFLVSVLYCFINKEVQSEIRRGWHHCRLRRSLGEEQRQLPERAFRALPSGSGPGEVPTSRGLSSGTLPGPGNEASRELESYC
Description: cAMP antagonism (CisBio cAMP Dynamic 2 HTRF assay). The class given is cell-based. More on the design: pCMV-Script vector. In short, it runs like this:
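Four-parameter fits of cAMP dose-response gave pIC50. cAMP fall was quantified by HTRF competition, ratio 665/620 nm after 60 min at room temperature, against a cAMP standard curve.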

T1 sequence (P47871 26-477, species assumed): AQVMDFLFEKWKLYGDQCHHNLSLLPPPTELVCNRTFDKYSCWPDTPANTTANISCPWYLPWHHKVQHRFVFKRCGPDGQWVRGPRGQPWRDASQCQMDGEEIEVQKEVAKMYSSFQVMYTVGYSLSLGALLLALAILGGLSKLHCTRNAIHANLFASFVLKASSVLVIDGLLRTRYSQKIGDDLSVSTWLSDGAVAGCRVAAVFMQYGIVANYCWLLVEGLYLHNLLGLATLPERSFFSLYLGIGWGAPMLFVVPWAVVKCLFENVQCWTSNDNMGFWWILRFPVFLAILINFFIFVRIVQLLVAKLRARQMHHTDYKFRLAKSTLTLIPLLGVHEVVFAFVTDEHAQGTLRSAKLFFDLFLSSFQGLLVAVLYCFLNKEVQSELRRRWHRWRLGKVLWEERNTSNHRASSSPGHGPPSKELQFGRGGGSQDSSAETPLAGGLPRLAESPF

Turning to `CC[C@H](C)[C@H](NC(=O)[C@H](CO)NC(=O)[C@H](Cc1ccc(O)cc1)NC(=O)[C@H](CC(=O)O)NC(=O)[C@H](CO)NC(=O)[C@@H](NC(=O)[C@H](Cc1ccccc1)NC(=O)[C@@H](NC(=O)CNC(=O)[C@@H](N)CO)[C@@H](C)O)[C@@H](C)CC)C(=O)N[C@@H](C)C(=O)N[C@@H](CCSC)C(=O)N[C@@H](CC(=O)O)C(=O)N[C@@H](CCCNC(=N)N)C(=O)N[C@H](C(=O)N[C@@H](CCCCNC(=O)CCCCCCCCCCCCCCCCC(=O)O)C(=O)N[C@@H](CCC(N)=O)C(=O)N[C@@H](CCC(N)=O)C(=O)N[C@@H](CC(=O)O)C(=O)N[C@@H](Cc1ccccc1)C(=O)N[C@H](C(=O)N[C@@H](CC(N)=O)C(=O)N[C@@H](Cc1c[nH]c2ccccc12)C(=O)N[C@@H](CC(C)C)C(=O)N[C@@H](CC(C)C)C(=O)N[C@@H](C)C(=O)N[C@@H](CCC(N)=O)C(=O)N[C@@H](CCCNC(=N)N)C(N)=O)C(C)C)[C@@H](C)CC` [AT393] (H-SGTFISDYSIAMDRIK(C18 diacid)QQDFVNWLLAQR-NH2; N-terminus assumed), the “Glucagon R, Antagonism, nM” value at glucagon receptor (GcgR) is “No antagonism”. The “GLP-2R, Antagonism” value at GLP2 receptor (GLP2R) is “No antagonism”. In addition, the half-life in data set [1] (Göttingen, minipig, plasma, subcutaneous, Example 1, read-out: T1/2 (converted)) is 25 h; in data set [1] (sc, Table 1B, species not given, unit h, LC/MS in Göttingen minipig plasma for these IDs, subcutaneous 1-10 nmol/kg, read-out: T½ (converted)) it was 25 h. In addition, the 50% inhibitory concentration (IC50) against human GIP receptor (GIPR, Antagonism, nM, Table 3C, CisBio assay) came to 33.5 nM; on human GIP receptor (cAMP antagonism, nM (IC50), Table 1C, CisBio, HEK-293 cells, agonist GIP1-42 at EC50), 33.5 nM. Also, the “cAMP antagonism, % inhib” value at human GIP receptor (Table 1C, CisBio, HEK-293 cells) came to 78%. In addition, the “GIPR, Antagonism, % inhib” value on human GIP receptor (Table 3C, CisBio assay) stood at 78%.
